# Test results taken from US6387889B1, “Medicinal compositions for treating eye diseases” (Yamasa Corporation, priority 1998, dated 2002).
# Legend:
# [1] = test system: rabbit of normal ocular tension; assay: Test Example 2: effect of lowering ocular tension after instillation of test compound to rabbit of normal ocular tension; type: in vivo, Japanese white male rabbits; conditions: 0.1% (W/V), 50 μL instilled; for AUC: area under curve of time vs difference in ocular tension between treated eye and eye drop base eye, up to 480 minutes; for Emax: maximum difference in ocular tension between treated eye and eye drop base eye
# Experimental: Compounds shown in Table 1 were used as test compounds. Each compound was dissolved in saline containing polysorbate 80 (hereinafter the saline will be referred to as “eye drop base A”) or in an aqueous solution of boric acid buffer (pH 7.0) containing polysorbate 80 (hereinafter the solution will be referred to as “eye drop base B”) (polysorbate 80 content of each base: 5 mg/mL), to thereby obtain a test solution. The amount of each compound in the resultant solution was 0.1% (W/V). The eye drop bases were employed as a control.
# Japanese white male rabbits (Kitayama Labes Co., Ltd.) (weight: 2.1-3.2 kg) were employed in the test. The rabbits were retained in a box-type fixation apparatus and employed in the test.
# The ocular tension of each rabbit was measured by use of Model 30 Classic Pneumatonometer (product of Mentor) without anesthesia. Before the ocular tension was measured, 0.4% oxybuprocaine hydrochloride (Benoxil 0.4% eye drop solution, product of Santen Pharmaceutical Co., Ltd.) was instilled to the eyes of each rabbit, to thereby anesthetize the surface of the cornea. The ocular tension of each rabbit was measured several times at regular intervals. After the ocular tension became stable, the ocular tension was measured three times, and the average value was employed as the ocular tension.
# A 0.1% solution of each test compound (50 μL) was instilled to one eye of each of the respective rabbits, and simultaneously the eye drop base (50 μL) was instilled to the remaining eye. The ocular tensions of both eyes were measured 60 minutes before instillation of the test compound; 0 minute immediately before instillation; and 30, 60, 90, 120, 150, 180, 240, 300, 360, 420, and 480 minutes after instillation. Two to six rabbits were employed for each test compound. For control, the eye drop base was instilled to both eyes of each respective rabbit, and the ocular tension was measured in a manner similar to that described above.
# For each test compound, the effect of lowering ocular tension was evaluated on the basis of the following values: the area under the curve of time versus change in difference between the ocular tension of the eye to which the test compound was instilled and that of the eye to which the eye drop base was instilled (hereinafter the area will be abbreviated as AUC (mmHg·min)); and the maximum value of difference between the ocular tension of the eye to which the test compound was instilled and that of the eye to which the eye drop base was instilled (hereinafter the value will be abbreviated as Emax (mmHg)).
# [2] = test system: ocular tension in rabbits; assay: Test Example 1: ocular tension after instillation to rabbits (FIGS. 1 and 2); type: in vivo, New Zealand white male rabbits; conditions: 0.03% and 0.1% (W/V) in 15% aqueous dimethyl sulfoxide, 50 μL instilled once; 15-180 minutes after instillation; CGS-21680 0.1% (w/v)
# Experimental: 2-(1-Octynyl)adenosine, 2-(3-hydroxy-1-propynyl)adenosine, and CGS-21680 [2-((4-(2-carboxyethyl)phenylethyl)amino)adenosine-5′-N-ethyluronamide] were used as test compounds. Each compound was dissolved in a 15% aqueous solution of dimethyl sulfoxide (hereinafter the solution will be referred to as an “eye drop base”), to thereby obtain a test solution. The amounts of 2-(1-octynyl)adenosine and 2-(3-hydroxy-1-propynyl)adenosine were 0.03% (W/V) and 0.1% (W/V), respectively. The amount of CGS-21680 in the resultant solution was 0.1% (w/v). The eye drop base was employed as a control.
# New Zealand white male rabbits (Tokyo Jikken Dobutsu) (weight: 2.2-3.1 kg) were employed in the test. […]
# The ocular tension of each rabbit was measured by use of an applanation pneumatonometer (Alcon, PTG) without anesthesia. Before the ocular tension was measured, 0.4% oxybuprocaine hydrochloride (Benoxil 0.4% eye drop, product of Santen Pharmaceutical Co., Ltd.) was instilled to the eyes of each rabbit, to thereby anesthetize the surface of the cornea. Before administration of drugs, the ocular tension of each rabbit was measured several times at 15-minute intervals until the ocular tension became stable. After the ocular tension became stable, the ocular tension was measured three times, and the average value was employed as the normal ocular tension. […]
# [3] = Test Example 3: single oral dose toxicity in rats; conditions: both sexes, SD, in vivo, rat, observed for two weeks, maximum dose
# Experimental: To six-week-old male and female SD rats (six for each group), 2-(1-octynyl)adenosine was administered orally at a single dose of 521, 729, 1020, 1429, or 2000 mg/kg.
# [4] = Test Example 3: single oral dose toxicity in dogs; conditions: both sexes, beagle, in vivo, dog, observed for two weeks, maximum dose
# Experimental: To nine-month-old male and female beagle dogs (two for each group), 2-(1-octynyl)adenosine was administered orally at a single dose of 50, 150, or 450 mg/kg.
# [5] = eye drop base B (boric acid buffer pH 7.0 with polysorbate 80)
# [6] = eye drop base A (saline with polysorbate 80)
SMILES,"AUC [1, 5] [mmHg.min]","Emax [1, 5] [mmHg]","AUC [1, 6] [mmHg.min]","Emax [1, 6] [mmHg]",further results
"CCCCC#Cc1nc(N)c2ncn([C@@H]3O[C@H](CO)[C@@H](O)[C@H]3O)c2n1 [Compound 1, 2-(1-hexynyl)adenosine]",−1236.0,−4.6,–,–,–
"Nc1nc(C#CC2CCCC2)nc2c1ncn2[C@@H]1O[C@H](CO)[C@@H](O)[C@H]1O [Compound 11, 2-(2-cyclopentyl-1-ethynyl)adenosine]",−1532.7,−4.4,–,–,–
"Nc1nc(C#CCC2CCCC2)nc2c1ncn2[C@@H]1O[C@H](CO)[C@@H](O)[C@H]1O [Compound 13, 2-(3-cyclopentyl-1-propynyl)adenosine]",−1053.9,−5.9,–,–,–
"Nc1nc(C#CCC2CCCCC2)nc2c1ncn2[C@@H]1O[C@H](CO)[C@@H](O)[C@H]1O [Compound 14, 2-(3-cyclohexyl-1-propynyl)adenosine]",−1053.2,−4.0,–,–,–
"CCCCCCCCOCCC#Cc1nc(N)c2ncn([C@@H]3O[C@H](CO)[C@@H](O)[C@H]3O)c2n1 [Compound 8, 2-(4-octoxy-1-butynyl)adenosine]",−1683.0,−5.4,–,–,–
"CCCOCCC#Cc1nc(N)c2ncn([C@@H]3O[C@H](CO)[C@@H](O)[C@H]3O)c2n1 [Compound 7, 2-(4-propoxy-1-butynyl)adenosine]",−1828.5,−4.9,–,–,–
"CCCCC#Cc1nc(N)c2ncn([C@@H]3O[C@H](C(=O)NC)[C@@H](O)[C@H]3O)c2n1 [Compound 16, 2-(1-hexynyl)adenosine-4′-methylcarboxamide]",–,–,−1838.3,−6.0,–
"CCNC(=O)[C@H]1O[C@@H](n2cnc3c(N)nc(NCCc4ccc(CCC(=O)O)cc4)nc32)[C@H](O)[C@@H]1O [CGS-21680, 2-((4-(2-carboxyethyl)phenylethyl)amino)adenosine-5′-N-ethyluronamide, reference compound]",–,–,−508.1,−2.5,–
"CCOCC#Cc1nc(N)c2ncn([C@@H]3O[C@H](CO)[C@@H](O)[C@H]3O)c2n1 [Compound 6, 2-(3-ethoxy-1-propynyl)adenosine]",–,–,−1538.3,−5.3,melting point: 120 to 127 °C
"CCOCCCC#Cc1nc(N)c2ncn([C@@H]3O[C@H](CO)[C@@H](O)[C@H]3O)c2n1 [Compound 9, 2-(5-ethoxy-1-pentynyl)adenosine]",−1117.5,−3.7,–,–,–
"CCCCCCC#Cc1nc(N)c2ncn([C@@H]3O[C@H](CO)[C@@H](O)[C@H]3O)c2n1 [Compound 2, 2-(1-octynyl)adenosine]",–,–,−1093.5,−4.2,"effect of lowering ocular tension (ΔIOP) [2]: excellent effect of lowering ocular tension, as compared with CGS-21680; LD50 at 2 weeks [3]: ≥ 2000 mg/kg; LD50 at 2 weeks [4]: ≥ 450 mg/kg"
"Nc1nc(C#CC2CCCCC2)nc2c1ncn2[C@@H]1O[C@H](CO)[C@@H](O)[C@H]1O [Compound 12, 2-(2-cyclohexyl-1-ethynyl)adenosine]",−1670.2,−6.0,–,–,–
"Nc1nc(C#CC(O)c2ccccc2)nc2c1ncn2[C@@H]1O[C@H](CO)[C@@H](O)[C@H]1O (stereo partly drawn) [Compound 5, 2-(3-hydroxy-3-phenyl-1-propynyl)adenosine]",–,–,−1185.6,−4.8,–
"Nc1nc(C#CCCC2CCCC2)nc2c1ncn2[C@@H]1O[C@H](CO)[C@@H](O)[C@H]1O [Compound 15, 2-(4-cyclopentyl-1-butynyl)adenosine]",−1086.0,−5.6,–,–,–
"Nc1nc(C#CCCCCN2C(=O)c3ccccc3C2=O)nc2c1ncn2[C@@H]1O[C@H](CO)[C@@H](O)[C@H]1O [Compound 3, 2-(6-phthalimidyl-1-hexynyl)adenosine]",–,–,−1471.0,−6.3,–
"Nc1nc(C#CCOC2CCCCC2)nc2c1ncn2[C@@H]1O[C@H](CO)[C@@H](O)[C@H]1O [Compound 10, 2-(3-cyclohexyloxy-1-propynyl)adenosine]",–,–,−945.9,−4.3,–
"Nc1nc(C#CCO)nc2c1ncn2[C@@H]1O[C@H](CO)[C@@H](O)[C@H]1O [Compound 4, 2-(3-hydroxy-1-propynyl)adenosine]",–,–,−955.6,−4.3,"effect of lowering ocular tension (ΔIOP) [2]: excellent effect of lowering ocular tension, as compared with CGS-21680"
